Inhibition data for 18 compounds are collected here from patent US8884030B2, “Inhibitors of Flaviviridae viruses” (priority 2010, dated 2014).

The inhibition is the relative decrease from the control value, in per cent.

This test relates to human hepatoma Huh-7 cell line harboring a HCV replicon. The test is described as follows: HCV replicon assay (inhibition of viral replication, luciferase). Type of test: cell-based. The following applies: Hepatitis C virus, 72 h; 2 μM; Huh-7 HCV replicon cells, 3 days incubation; inhibition of viral replication; read-out: % inhibition at 2 μM. How it is done:
The anti-HCV activity of the compounds of this invention was tested in a human hepatoma Huh-7 cell line harboring a HCV replicon. The assay comprised the following steps:
Step 1: Compound Preparation and Serial Dilution.
Serial dilution was performed in 100% DMSO in a 384-well plate. A solution containing a compound at 225-fold concentration of the starting final serial dilution concentration was prepared in 100% DMSO and 15 uL added to the pre-specified wells in column 3 or 13 of a polypropylene 384-well plate. The rest of the 384-well plate was filled with 10 uL 100% DMSO except for columns 23 and 24, where 10 uL of 500 uM a HCV protease inhibitor (ITMN-191) in 100% DMSO was added. The HCV protease inhibitor was used a control of 100% inhibition of HCV replication. The plate was then placed on a Biomek FX Workstation to start the serial dilution. The serial dilution was performed for ten cycles of 3-fold dilution from column 3 to 12 or from column 13 to 22.
Step 2: Cell Culture Plate Preparation and Compound Addition
To each well of a black polypropylene 384-well plate, 90 μL of cell media containing 1600 suspended Huh-7 HCV replicon cells was added with a Biotek uFlow Workstation. A volume of 0.4 μL of the compound solution was transferred from the serial dilution plate to the cell culture plate on a Biomek FX Workstation. The DMSO concentration in the final assay condition was 0.44%. The plates were incubated for 3 days at 37° C. with 5% CO2 and 85% humidity.
Step 3: Detection of Cytotoxicity and Inhibition of Viral Replication
a) Assessment of cytotoxicity: The media in the 384-well cell culture plate was aspirated with a Biotek EL405 plate-washer. A volume of 50 μL of a solution containing 400 nM Calcein AM in 100% PBS was added to each well of the plate with a Biotek uFlow Workstation. The plate was incubated for 30 minutes at room temperature before the fluorescence signal ([…]) was measured with a Perkin Elmer Envision Plate Reader.
b) Assessment of inhibition of viral replication: The calcein-PBS solution in the 384-well cell culture plate was aspirated with a Biotek EL405 plate-washer. A volume of 20 μL of Dual-Glo luciferase buffer (Promega, Dual-Glo Luciferase Assay Reagent, cat. #E298B) was added to each well of the plate with a Biotek uFlow Workstation. The plate was incubated for 10 minutes at room temperature. A volume of 20 μL of a solution containing 1:100 mixture of Dual-Glo Stop & Glo substrate(Promega, Dual-Glo Luciferase Assay Reagent, cat. #E313B) and Dual-Glo Stop & Glo buffer (Promega, Dual-Glo Luciferase Assay Reagent, cat. #E314B) was then added to each well of the plate with a Biotek uFlow Workstation. The plate was incubated at room temperature for 10 minutes before the luminescence signal was measured with a Perkin Elmer Envision Plate Reader.
The percent cytotoxicity was determined by calcein AM conversion to fluorescent product. The average fluorescent signal from the DMSO control wells were defined as 100% nontoxic. The individual fluorescent signal from testing compound treated well was divided by the average signal from DMSO control wells and then multiplied by 100% to get the percent viability. The percent anti-HCV replication activity was determined by the luminescence signal from the testing well compared to DMSO controls wells. The background signal was determined by the average luminescence signal from the HCV protease inhibitor treated wells and was subtracted from the signal from the testing wells as well as the DMSO control wells. Following 3-fold serial dilutions, the EC50 and CC50 values were calculated by fitting % inhibition at each concentration to the following equation: % inhibition=100%[(EC50/[l])^b+1]
Where b is Hill's coefficient. See, for reference, Hill, A. V., The Possible Effects of the Aggregation of the Molecules of Hæmoglobin on its Dissociation Curves, J. Physiol. 40: iv-vii. (1910). […]
Background: Replicon systems follow genome replication, usually without infectious particles.
Consider `CC1CCC(C(=O)N(c2cc(C#CC(C)(C)C)sc2C(=O)O)C2CCN(C(=O)c3cccnc3)CC2)CC1` (stereo not drawn) [Compound 140, 5-(3,3-dimethyl-but-1-ynyl)-3-{(4-methyl-cyclohexanecarbonyl)-[1-(pyridine-3-carbonyl)-piperidin-4-yl]-amino}-thiophene-2-carboxylic acid], for which the inhibition at 2 µM is 99.9%.
Regarding `CC(C)(C)C#Cc1cc(N(C(=O)[C@H]2CC[C@H](C)CC2)[C@H]2CCN(C(=O)O[C@@H]3CNC(=O)C3)C2)c(C(=O)O)s1` [Compound 33, 3-(S)-[[2-carboxy-5-(3,3-dimethyl-but-1-ynyl)-thiophen-3-yl]-(4-trans-methyl-cyclohexanecarbonyl)-amino]-pyrrolidine-1-carboxylic acid 5-oxo-pyrrolidin-3-(S)-yl ester], the inhibition at 2 µM came out at 96.2%.
The figure for `CC1CCC(C(=O)N(c2cc(C#CC(C)(C)C)sc2C(=O)O)N(C)CCO)CC1` (stereo not drawn) [Compound 135, 5-(3,3-dimethyl-but-1-ynyl)-3-[N′-(2-hydroxy-ethyl)-N′-methyl-N-(4-methyl-cyclohexanecarbonyl)-hydrazino]-thiophene-2-carboxylic acid] is 99.8%; for `CC(C)(C)C#Cc1cc(N(C(=O)[C@H]2CC[C@H](C)CC2)C2CCN(C(=O)OC3(C)CN(C(=O)OC(C)(C)C)C3)CC2)c(C(=O)O)s1` [Compound 73, 4-[[2-carboxy-5-(3,3-dimethyl-but-1-ynyl)-thiophen-3-yl]-(trans-4-methyl-cyclohexanecarbonyl)-amino]-piperidine-1-carboxylic acid 1-tert-butoxycarbonyl-3-methyl-azetidin-3-yl ester] it is 93.1%.
The figure for `CC1CCC(C(=O)N(c2cc(C#CC(C)(C)C)sc2C(=O)O)C2CCC(=NOCc3ccc(S(C)(=O)=O)cc3)CC2)CC1` (stereo not drawn) [Compound 121, 3-(N-(4-(4-(Methylsulfonyl)benzyloxyimino)cyclohexyl)-4-methylcyclohexanecarboxamido)-5-(3,3-dimethylbut-1-ynyl)thiophene-2-carboxylic acid] is 99.9%; for `CC(C)(C)C#Cc1cc(N(C(=O)[C@H]2CC[C@H](C)CC2)[C@H]2CCN(C(=O)O[C@H]3CO[C@H]4OCC[C@H]43)C2)c(C(=O)O)s1` [Compound 35, 3-(S)-[[2-Carboxy-5-(3,3-dimethyl-but-1-ynyl)-thiophen-3-yl]-(4-methyl-cyclohexanecarbonyl)-amino]-pyrrolidine-1-carboxylic acid hexahydro-furo[2,3-b]furan-3-(R)-yl ester] it is 99.8%; for `CC1CCC(C(=O)N(c2cc(C#CC(C)(C)C)sc2C(=O)O)N(CCO)C2COC2)CC1` (stereo not drawn) [Compound 134, 5-(3,3-dimethyl-but-1-ynyl)-3-[N′-(2-hydroxy-ethyl)-N-(4-methyl-cyclohexanecarbonyl)-N′-oxetan-3-yl-hydrazino]-thiophene-2-carboxylic acid] it is 99%.
For the compound `CC(C)(C)C#Cc1cc(N(C(=O)[C@H]2CC[C@H](C)CC2)C2CCC(=NOCn3cncn3)CC2)c(C(=O)O)s1` (stereo partly drawn) [Compound 114, 3-(N-(4-((1H-1,2,4-Triazol-1-yl)methoxyimino)cyclohexyl)-4-methylcyclohexanecarboxamido)-5-(3,3-dimethylbut-1-ynyl)thiophene-2-carboxylic acid], the inhibition at 2 µM was 100%.
For the compound `C[C@@H](CCNC(=O)O[C@H]1CO[C@H]2OCC[C@H]21)N(c1cc(C#CC(C)(C)C)sc1C(=O)O)C(=O)[C@H]1CC[C@H](C)CC1` [Compound 64, 5-(3,3-Dimethyl-but-1-ynyl)-3-[[3-(hexahydro-furo[2,3-b]furan-3-yloxycarbonylamino)-1-(S)-methyl-propyl]-(trans-4-methyl-cyclohexanecarbonyl)-amino]-thiophene-2-carboxylic acid], the inhibition at 2 µM amounted to 100%.
The figure for `CC1CCC(C(=O)N(c2cc(C#CC(C)(C)C)sc2C(=O)O)C2CCC(=NOCc3ccncc3)CC2)CC1` (stereo not drawn) [Compound 117, 5-(3,3-Dimethylbut-1-ynyl)-3-(4-methyl-N-(4-(pyridin-4-ylmethoxyimino)cyclohexyl)cyclohexanecarboxamido)thiophene-2-carboxylic acid] is 99.9%; for `CC(C)(C)C#Cc1cc(N(C(=O)[C@H]2CC[C@H](C)CC2)C2CCC(NS(=O)(=O)c3cccnc3)CC2)c(C(=O)O)s1` (stereo partly drawn) [Compound 165, 5-(3,3-dimethyl-but-1-ynyl)-3-{(4-trans-methyl-cyclohexanecarbonyl)-[4-(pyridine-3-sulfonylamino)-cyclohexyl]-amino}-thiophene-2-carboxylic acid] it is 95.7%; for `CC(C)(C)C#Cc1cc(N(C(=O)[C@H]2CC[C@H](C)CC2)C2CCC(NC(=O)O[C@@H]3CCCN(C(=O)OC(C)(C)C)C3)CC2)c(C(=O)O)s1` (stereo partly drawn) [Compound 46, 3-(R)-{4-[[2-carboxy-5-(3,3-dimethyl-but-1-ynyl)-thiophen-3-yl]-(4-trans-methyl-cyclohexanecarbonyl)-amino]-cyclohexylcarbamoyloxy}-piperidine-1-carboxylic acid tert-butyl ester] it is 97%.
The value for `CC(C)(C)C#Cc1cc(N(C(=O)[C@H]2CC[C@H](C)CC2)C2CCN(C(=O)OC3CCS(=O)(=O)C3)CC2)c(C(=O)O)s1` (stereo partly drawn) [Compound 74, 4-[[2-carboxy-5-(3,3-dimethyl-but-1-ynyl)-thiophen-3-yl]-(trans-4-methyl-cyclohexanecarbonyl)-amino]-piperidine-1-carboxylic acid 1,1-dioxo-tetrahydro-1λ^6-thiophen-3-yl ester] was 99.7%; that for `CC1CCC(C(=O)N(c2cc(C#CC(C)(C)C)sc2C(=O)O)C2CCN(C(=O)c3cnccn3)CC2)CC1` (stereo not drawn) [Compound 141, 5-(3,3-dimethyl-but-1-ynyl)-3-{(4-methyl-cyclohexanecarbonyl)-[1′-(pyrazine-2-carbonyl)-piperidin-4-yl]-amino}-thiophene-2-carboxylic acid] was 99.9%; that for `CC1CCC(C(=O)N(c2cc(C#CC(C)(C)C)sc2C(=O)O)N(C)CCOc2ccccn2)CC1` (stereo not drawn) [Compound 132, 5-(3,3-dimethyl-but-1-ynyl)-3-{N′-methyl-N-(4-methyl-cyclohexanecarbonyl)-N′-[2-(pyridin-2-yloxy)-ethyl]-hydrazino}-thiophene-2-carboxylic acid] was 77.4%.
As for `CC(C)(C)C#Cc1cc(N(C(=O)[C@H]2CC[C@H](C)CC2)C2CCC(=NOc3ccccc3)CC2)c(C(=O)O)s1` (stereo partly drawn) [Compound 119, 5-(3,3-Dimethylbut-1-ynyl)-3-(4-methyl-N-(4-(phenoxyimino)cyclohexyl)cyclohexanecarboxamido)thiophene-2-carboxylic acid], the inhibition at 2 µM stood at 97.1%.
The value for `CC1CCC(C(=O)N(c2cc(C#CC(C)(C)C)sc2C(=O)O)C2CCC(NN(C)c3ccccn3)CC2)CC1` (stereo not drawn) [Compound 79, 5-(3,3-Dimethyl-but-1-ynyl)-3-{(4-methyl-cyclohexanecarbonyl)-[4-(N′-methyl-N′-pyridin-2-yl-hydrazino)-cyclohexyl]-amino}-thiophene-2-carboxylic acid] was 100%; that for `CC(C)(C)C#Cc1cc(N(C(=O)[C@H]2CC[C@H](C)CC2)[C@H]2CCN(C(=O)O[C@H]3CCNC3=O)C2)c(C(=O)O)s1` [Compound 43, 3-(S)-[[2-carboxy-5-(3,3-dimethyl-but-1-ynyl)-thiophen-3-yl]-(4-trans-methyl-cyclohexanecarbonyl)-amino]-pyrrolidine-1-carboxylic acid 2-oxo-pyrrolidin-3-(R)-yl ester] was 96.2%.
